Measured values published in US12590066B2, “Fused-heterocyclyl-carbonohydrazonoyl dicyanide compounds and use thereof” (KOREA INSTITUTE OF SCIENCE AND TECHNOLOGY, priority 2020, dated 2026).

How the values were obtained:
[1] = target: T1, tau protein (Homo sapiens, UniProt P10636); test: Tau-BiFC cell model, inhibition of Forskolin-induced tau protein aggregation; format: cell-based; conditions: Forskolin 30 μM, 48 hours
T1 construct: BiFC fluorescent-protein fragments (type and halves not specified); expressed in transfected cells
T1 sequence (P10636 1-441 isoform P10636-8): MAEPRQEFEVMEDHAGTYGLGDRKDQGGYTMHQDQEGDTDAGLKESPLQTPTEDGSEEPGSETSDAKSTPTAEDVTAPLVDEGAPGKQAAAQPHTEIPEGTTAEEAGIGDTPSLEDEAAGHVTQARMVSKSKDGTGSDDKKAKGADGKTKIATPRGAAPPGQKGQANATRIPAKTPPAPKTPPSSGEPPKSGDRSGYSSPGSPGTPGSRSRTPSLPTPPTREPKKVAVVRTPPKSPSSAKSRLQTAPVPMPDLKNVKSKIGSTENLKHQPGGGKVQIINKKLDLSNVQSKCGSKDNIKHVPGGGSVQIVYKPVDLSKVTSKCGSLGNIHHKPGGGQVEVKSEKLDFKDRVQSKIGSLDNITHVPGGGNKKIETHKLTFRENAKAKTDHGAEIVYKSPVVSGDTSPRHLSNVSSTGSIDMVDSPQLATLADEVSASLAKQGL
Procedure: In order to select novel tau protein aggregation-inhibiting substances, tau-BiFC cell model, in which formation of tau oligomers in living cells is easily observed, was used. Tau-BiFC cells were aliquoted into a 384-well plate. On the next day, the cells were treated with each of the compounds prepared according to Examples 1 to 57 at concentrations of 1 μM, 3 μM, and 10 μM, together with Forskolin (at a treatment concentration of 30 μM), which is a compound inducing tau protein aggregation by activating tau phosphorylase PKA. After 48 hours, nuclei in the cells were stained using Hoechst (at a treatment concentration of 2 μg/mL), and BiFC fluorescence intensity was automatically measured using Operetta (PerkinElmer) to count stained nuclei in each well out of the entire well plate. The group treated only with Forskolin, which induces tau protein aggregation, was set to a reference point of a 100% tau protein-aggregated state, and the effects of the compounds were confirmed using the equation “BiFC fluorescence intensity due to compound synthesized according to embodiment of present invention/(fluorescence intensity of control group treated only with Forskolin inducing tau protein aggregation−fluorescence intensity of untreated control group)×100”. Furthermore, the degree of cytotoxicity induced by the newly synthesized compound was also measured based on the 100% cell viability of the group treated only with Forskolin as a reference, and the cytotoxicity value of each compound was calculated using the equation “(number of stained nuclei in group treated with compound/number of stained nuclei in group treated with Forskolin)×100”. Based on the treatment results, substances inhibiting intracellular tau protein aggregation were selected from a series of candidate groups showing a tau protein aggregation inhibition rate of 70% or more and cell viability of 100% at a compound treatment concentration of 10 μM or more.
In order to evaluate dose-dependent tau protein aggregation inhibition effects of the compounds selected according to Experimental Example 1 on tau protein aggregation, tau-BiFC cells were treated with the selected compounds at concentrations of 0.03 μM, […], 0.3 μM, 1 μM, 3 μM, 10 μM, and 30 μM, respectively, together with Forskolin (at a treatment concentration of 30 μM), which is a tau protein aggregation-inducing substance. After 48 hours, tau protein aggregation reaction and degrees of cytotoxicity were analyzed by observing images of the cells. IC50 and toxicity of the compounds were analyzed by way of nonlinear regression analysis of prism software (Graph Pad).

[2] = target: T2, CYP2C9 (Homo sapiens, UniProt P11712); test: Inhibitory effect on CYP coenzyme activity, human liver microsomes; format: in vitro ADME; conditions: 10 μM compound, human liver microsomes 0.25 mg/mL, substrate diclofenac, 15 minutes
T2 construct: human liver microsomes (0.25 mg/mL); from tissue; host or cells: human liver microsomes
T2 sequence (P11712 whole entry): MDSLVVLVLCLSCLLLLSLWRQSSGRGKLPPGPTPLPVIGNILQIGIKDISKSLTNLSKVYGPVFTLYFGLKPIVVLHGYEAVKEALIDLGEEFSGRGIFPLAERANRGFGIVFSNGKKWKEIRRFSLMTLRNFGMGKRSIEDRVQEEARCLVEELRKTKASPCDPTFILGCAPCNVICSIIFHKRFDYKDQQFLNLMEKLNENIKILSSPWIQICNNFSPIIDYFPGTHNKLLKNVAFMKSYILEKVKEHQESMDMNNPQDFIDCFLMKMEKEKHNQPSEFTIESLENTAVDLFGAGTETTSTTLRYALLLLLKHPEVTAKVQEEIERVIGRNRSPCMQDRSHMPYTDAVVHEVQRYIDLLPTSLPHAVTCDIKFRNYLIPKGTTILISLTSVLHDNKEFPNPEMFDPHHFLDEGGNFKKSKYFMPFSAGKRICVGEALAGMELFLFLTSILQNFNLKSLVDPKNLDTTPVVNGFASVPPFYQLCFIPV
Procedure: (§1) The inhibitory effects of the compounds prepared according to Examples 1 to 57 on CYP coenzyme activity were identified. Specifically, human liver microsomes (0.25 mg/mL), a 0.1 M phosphate buffer solution (pH 7.4), a substrate drug cocktail of five types of drug metabolism enzymes (50 μM phenacetin, 10 μM diclofenac, 100 μM S-mephenytoin, 5 μM dextromethorphan, and 2.5 μM midazolam), and the compound at a concentration of 0 μM or 10 μM were mixed and pre-cultured at 37° C. for 5 minutes, and then further cultured at 37° C. for 15 minutes together with an NADPH generation system solution added thereto. Thereafter, the reaction was terminated by adding an acetonitrile solution containing an internal standard material (terfenadine) and centrifuged for 5 minutes (14,000 rpm, 4° C.), and then a supernatant was injected into an LC-MS/MS system for simultaneous analysis of metabolites of the substrate drugs to thereby evaluate the inhibitory effects on drug metabolism.
(§2) Metabolites of each CYP coenzyme indicator drug generated through the reaction were analyzed using the Shimadzu Nexera XR system and TSQ Vantage (Thermo). In an HPLC column, Kinetex C18 (2.1 mm×100 mm, 2.6 μm, particle size; Phenomenex, USA) was used, and mobile phases were (A) distilled water containing 0.1% formic acid and (B) acetonitrile containing 0.1% formic acid, and a gradient program shown in Table 3 was applied thereto.
(§3) The generated metabolites were quantified using a multiple reaction monitoring (MRM) quantification mode, and Xcalibur (version 1.6.1) was used for data analysis. In order to express inhibitory effects of the novel compound prepared according to the examples of the present invention on CYP coenzyme activity, CYP coenzyme activities (%) with respect to the control group not treated with the compound are shown in Table 4 below.

[3] = target: T3, CYP3A4 (Homo sapiens, UniProt P08684); test: as above; format: in vitro ADME; conditions: 10 μM compound, human liver microsomes 0.25 mg/mL, substrate midazolam, 15 minutes
T3 construct: human liver microsomes (0.25 mg/mL); from tissue; host or cells: human liver microsomes
T3 sequence (P08684 whole entry): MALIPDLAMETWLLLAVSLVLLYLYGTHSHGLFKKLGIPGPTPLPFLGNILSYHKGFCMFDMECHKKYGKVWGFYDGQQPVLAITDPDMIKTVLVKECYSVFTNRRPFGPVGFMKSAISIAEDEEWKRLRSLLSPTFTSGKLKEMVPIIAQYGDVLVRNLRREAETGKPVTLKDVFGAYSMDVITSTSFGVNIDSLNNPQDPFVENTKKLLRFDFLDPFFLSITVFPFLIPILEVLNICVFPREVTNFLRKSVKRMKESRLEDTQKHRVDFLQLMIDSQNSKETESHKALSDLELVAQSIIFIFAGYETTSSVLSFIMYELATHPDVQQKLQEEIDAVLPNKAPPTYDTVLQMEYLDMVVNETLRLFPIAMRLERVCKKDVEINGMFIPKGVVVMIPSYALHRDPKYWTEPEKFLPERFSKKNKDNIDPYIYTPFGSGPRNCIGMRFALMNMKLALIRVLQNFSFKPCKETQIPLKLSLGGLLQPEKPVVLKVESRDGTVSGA
Procedure: as §1, §2, §3

[4] = target: T4, CYP2D6 (Homo sapiens, UniProt P10635); test: as above; format: in vitro ADME; conditions: 10 μM compound, human liver microsomes 0.25 mg/mL, substrate dextromethorphan, 15 minutes
T4 construct: human liver microsomes (0.25 mg/mL); from tissue; host or cells: human liver microsomes
T4 sequence (P10635 whole entry): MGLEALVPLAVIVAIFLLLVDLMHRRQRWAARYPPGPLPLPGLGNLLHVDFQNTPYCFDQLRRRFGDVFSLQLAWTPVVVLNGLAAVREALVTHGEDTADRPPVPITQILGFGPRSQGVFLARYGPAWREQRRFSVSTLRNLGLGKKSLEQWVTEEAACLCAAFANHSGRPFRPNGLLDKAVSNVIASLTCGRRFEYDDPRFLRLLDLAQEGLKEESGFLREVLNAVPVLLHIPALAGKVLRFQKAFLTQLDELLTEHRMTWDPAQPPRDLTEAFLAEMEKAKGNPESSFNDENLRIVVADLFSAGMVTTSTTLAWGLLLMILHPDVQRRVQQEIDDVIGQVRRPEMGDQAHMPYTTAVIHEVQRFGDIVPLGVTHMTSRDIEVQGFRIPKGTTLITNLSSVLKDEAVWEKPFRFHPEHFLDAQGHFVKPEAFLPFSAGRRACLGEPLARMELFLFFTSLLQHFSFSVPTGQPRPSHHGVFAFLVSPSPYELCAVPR
Procedure: as §1, §2, §3

[5] = target: T5, CYP2C19 (Homo sapiens, UniProt P33261); test: as above; format: in vitro ADME; conditions: 10 μM compound, human liver microsomes 0.25 mg/mL, substrate S-mephenytoin, 15 minutes
T5 construct: human liver microsomes (0.25 mg/mL); from tissue; host or cells: human liver microsomes
T5 sequence (P33261 whole entry): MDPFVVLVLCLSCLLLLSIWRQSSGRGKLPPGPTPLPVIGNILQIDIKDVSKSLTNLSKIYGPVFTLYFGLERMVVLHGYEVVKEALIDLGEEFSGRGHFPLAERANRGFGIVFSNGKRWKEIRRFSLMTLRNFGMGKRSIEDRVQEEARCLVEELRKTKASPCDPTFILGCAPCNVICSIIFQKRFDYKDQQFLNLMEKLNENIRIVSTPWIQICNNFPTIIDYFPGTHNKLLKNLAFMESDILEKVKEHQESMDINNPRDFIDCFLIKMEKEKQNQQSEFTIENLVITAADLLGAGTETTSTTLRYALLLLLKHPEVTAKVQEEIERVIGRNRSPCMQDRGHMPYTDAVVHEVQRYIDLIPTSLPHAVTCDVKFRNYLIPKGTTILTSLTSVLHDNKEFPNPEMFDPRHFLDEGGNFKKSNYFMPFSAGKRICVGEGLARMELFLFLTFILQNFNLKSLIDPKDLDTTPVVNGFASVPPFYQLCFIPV
Procedure: as §1, §2, §3

[6] = target: T6, CYP1A2 (Homo sapiens, UniProt P05177); test: as above; format: in vitro ADME; conditions: 10 μM compound, human liver microsomes 0.25 mg/mL, substrate phenacetin, 15 minutes
T6 construct: human liver microsomes (0.25 mg/mL); from tissue; host or cells: human liver microsomes
T6 sequence (P05177 1-516): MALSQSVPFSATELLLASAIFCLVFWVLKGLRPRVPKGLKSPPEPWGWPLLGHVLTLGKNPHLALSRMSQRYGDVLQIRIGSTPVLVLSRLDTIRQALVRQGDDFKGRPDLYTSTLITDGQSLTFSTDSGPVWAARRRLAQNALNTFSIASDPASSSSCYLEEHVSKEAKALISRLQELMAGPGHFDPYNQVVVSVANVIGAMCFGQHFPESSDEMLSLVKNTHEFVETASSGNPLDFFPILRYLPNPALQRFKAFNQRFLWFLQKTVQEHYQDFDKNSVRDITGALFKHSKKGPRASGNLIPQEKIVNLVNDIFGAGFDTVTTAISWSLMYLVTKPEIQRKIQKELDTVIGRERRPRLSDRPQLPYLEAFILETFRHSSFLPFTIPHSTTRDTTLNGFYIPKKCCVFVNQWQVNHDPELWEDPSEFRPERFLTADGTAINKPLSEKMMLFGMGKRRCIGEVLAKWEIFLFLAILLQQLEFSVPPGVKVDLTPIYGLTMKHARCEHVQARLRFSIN
Procedure: as §1, §2, §3

[7] = system: Tau-BiFC cells; test: Cell viability (stained nuclei count) in Tau-BiFC cells; format: cell-based; conditions: 10 μM compound, 48 hours; Forskolin-only group = 100% cell viability
Procedure: In order to select novel tau protein aggregation-inhibiting substances, tau-BiFC cell model, in which formation of tau oligomers in living cells is easily observed, was used. Tau-BiFC cells were aliquoted into a 384-well plate. On the next day, the cells were treated with each of the compounds prepared according to Examples 1 to 57 at concentrations of 1 μM, 3 μM, and 10 μM, together with Forskolin (at a treatment concentration of 30 μM), which is a compound inducing tau protein aggregation by activating tau phosphorylase PKA. After 48 hours, nuclei in the cells were stained using Hoechst (at a treatment concentration of 2 μg/mL), and BiFC fluorescence intensity was automatically measured using Operetta (PerkinElmer) to count stained nuclei in each well out of the entire well plate. The group treated only with Forskolin, which induces tau protein aggregation, was set to a reference point of a 100% tau protein-aggregated state, and the effects of the compounds were confirmed using the equation “BiFC fluorescence intensity due to compound synthesized according to embodiment of present invention/(fluorescence intensity of control group treated only with Forskolin inducing tau protein aggregation−fluorescence intensity of untreated control group)×100”. Furthermore, the degree of cytotoxicity induced by the newly synthesized compound was also measured based on the 100% cell viability of the group treated only with Forskolin as a reference, and the cytotoxicity value of each compound was calculated using the equation “(number of stained nuclei in group treated with compound/number of stained nuclei in group treated with Forskolin)×100”. Based on the treatment results, substances inhibiting intracellular tau protein aggregation were selected from a series of candidate groups showing a tau protein aggregation inhibition rate of 70% or more and cell viability of 100% at a compound treatment concentration of 10 μM or more. […]

## Cc1cc(=O)n(C)c2ccc(NN=C(C#N)C#N)cc12 [Compound 27, (1,4-dimethyl-2-oxo-1,2-dihydroquinolin-6-yl)carbonohydrazonoyl dicyanide]
[1]; 10 μM compound, Forskolin-only group = 100% tau protein-aggregated state
  Tau BiFC in cells Response (% @10 μM): −41%
[1]; tau-BiFC cells
  IC50: 10 nM
[2]
  CYP2C9 coenzyme activity (%) with respect to control group not treated: 33.6%
[3]
  CYP3A4 coenzyme activity (%) with respect to control group not treated: 73.6%
[4]
  CYP2D6 coenzyme activity (%) with respect to control group not treated: 86.7%
[5]
  CYP2C19 coenzyme activity (%) with respect to control group not treated: 96.3%
[6]
  CYP1A2 coenzyme activity (%) with respect to control group not treated: 58.7%
[7]
  Cell viability (% @10 μM): 115%
